According to ChEMBL document CHEMBL1201862, “PubChem BioAssay data set” (2004):
The source made the active and inactive calls.

How the values were obtained:
[1] = target: T1, Oxysterols receptor LXR-beta (Homo sapiens, UniProt P55055); format: functional, cell-based;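 also: agonist activity at LXR measured by a cell-based luminescence readout across a dose range, run as a counterscreen for daf-12 agonists; HEK293 cells with Gal4-LXR fusion and GAL4-driven luciferase reporter; potency for activation of Gal4-LXR reporter so compounds are agonists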
T1 sequence (P55055 whole entry): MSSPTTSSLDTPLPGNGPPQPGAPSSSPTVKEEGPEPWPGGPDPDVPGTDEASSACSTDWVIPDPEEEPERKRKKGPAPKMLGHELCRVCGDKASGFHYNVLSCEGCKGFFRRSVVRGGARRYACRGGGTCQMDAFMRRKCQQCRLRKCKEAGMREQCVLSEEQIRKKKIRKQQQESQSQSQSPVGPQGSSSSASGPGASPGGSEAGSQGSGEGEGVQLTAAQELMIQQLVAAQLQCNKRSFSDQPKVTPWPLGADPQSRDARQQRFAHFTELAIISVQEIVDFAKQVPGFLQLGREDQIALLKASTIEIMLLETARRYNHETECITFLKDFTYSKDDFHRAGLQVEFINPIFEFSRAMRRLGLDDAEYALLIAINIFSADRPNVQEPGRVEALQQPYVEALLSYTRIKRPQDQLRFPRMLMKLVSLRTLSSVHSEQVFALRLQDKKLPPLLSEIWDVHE

[2] = P. falciparum Dd2 growth inhibitors, dose response, SYBR Green, dry powder samples, set 9 (AID 1159568); format: functional, cell-based
[3] = target: T2, Fructose-bisphosphate aldolase (Mycobacterium tuberculosis, UniProt P9WQA3); test: Fluorescence-based biochemical high throughput dose response assay for inhibitors of the fructose-bisphosphate aldolase (FBA) of M. tuberculosis.; format: functional
T2 sequence (P9WQA3 whole entry): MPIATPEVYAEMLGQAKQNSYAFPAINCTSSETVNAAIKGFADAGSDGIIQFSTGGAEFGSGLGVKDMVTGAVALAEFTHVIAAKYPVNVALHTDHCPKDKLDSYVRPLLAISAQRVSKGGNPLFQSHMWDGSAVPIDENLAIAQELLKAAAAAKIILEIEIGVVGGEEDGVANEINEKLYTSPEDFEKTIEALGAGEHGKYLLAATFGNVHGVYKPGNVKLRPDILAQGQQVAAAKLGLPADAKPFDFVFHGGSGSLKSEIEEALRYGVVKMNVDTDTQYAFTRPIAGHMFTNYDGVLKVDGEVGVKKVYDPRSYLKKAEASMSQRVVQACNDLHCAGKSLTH

Beta-galactosidase = Beta-galactosidase (Escherichia coli, UniProt Q8VNN2); test: Dose response counterscreen for EBI2 assay utilizing the enzyme, b-galactosidase.; format: functional
Sequence of Beta-galactosidase (Q8VNN2 whole entry): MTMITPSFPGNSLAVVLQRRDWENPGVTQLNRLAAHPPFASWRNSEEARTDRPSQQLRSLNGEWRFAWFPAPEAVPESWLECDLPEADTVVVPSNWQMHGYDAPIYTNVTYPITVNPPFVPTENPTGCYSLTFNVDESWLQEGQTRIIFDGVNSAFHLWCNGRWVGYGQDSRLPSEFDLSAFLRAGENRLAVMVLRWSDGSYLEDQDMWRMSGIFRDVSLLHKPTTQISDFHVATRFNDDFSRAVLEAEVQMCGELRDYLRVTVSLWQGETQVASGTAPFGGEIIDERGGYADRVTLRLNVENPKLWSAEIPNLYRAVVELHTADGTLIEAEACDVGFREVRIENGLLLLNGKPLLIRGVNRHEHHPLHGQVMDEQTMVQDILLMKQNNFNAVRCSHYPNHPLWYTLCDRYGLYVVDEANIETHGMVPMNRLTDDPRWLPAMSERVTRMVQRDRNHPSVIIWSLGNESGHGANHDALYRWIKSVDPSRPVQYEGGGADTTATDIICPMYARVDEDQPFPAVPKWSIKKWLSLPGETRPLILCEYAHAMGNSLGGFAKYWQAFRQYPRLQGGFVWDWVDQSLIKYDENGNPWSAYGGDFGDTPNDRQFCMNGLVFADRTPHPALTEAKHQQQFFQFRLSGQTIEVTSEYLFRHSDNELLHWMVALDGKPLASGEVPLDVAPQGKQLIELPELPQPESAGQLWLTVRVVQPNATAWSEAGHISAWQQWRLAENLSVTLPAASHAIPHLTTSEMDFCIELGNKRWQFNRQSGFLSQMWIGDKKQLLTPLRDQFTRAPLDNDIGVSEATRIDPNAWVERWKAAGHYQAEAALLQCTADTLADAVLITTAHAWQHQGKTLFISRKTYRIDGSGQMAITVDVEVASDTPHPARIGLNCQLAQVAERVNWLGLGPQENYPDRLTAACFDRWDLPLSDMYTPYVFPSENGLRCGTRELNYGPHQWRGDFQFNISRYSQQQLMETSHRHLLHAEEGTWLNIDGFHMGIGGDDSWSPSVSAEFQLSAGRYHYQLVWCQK

cells [4] = format: functional, cell-based
[5] = target: T3, Trace amine-associated receptor 1 (Homo sapiens, UniProt Q96RJ0); test: Fluorescence-based cell-based high throughput dose response assay to identify agonists of the human trace amine associated receptor 1 (TAAR1).; format: functional
T3 sequence (Q96RJ0 whole entry): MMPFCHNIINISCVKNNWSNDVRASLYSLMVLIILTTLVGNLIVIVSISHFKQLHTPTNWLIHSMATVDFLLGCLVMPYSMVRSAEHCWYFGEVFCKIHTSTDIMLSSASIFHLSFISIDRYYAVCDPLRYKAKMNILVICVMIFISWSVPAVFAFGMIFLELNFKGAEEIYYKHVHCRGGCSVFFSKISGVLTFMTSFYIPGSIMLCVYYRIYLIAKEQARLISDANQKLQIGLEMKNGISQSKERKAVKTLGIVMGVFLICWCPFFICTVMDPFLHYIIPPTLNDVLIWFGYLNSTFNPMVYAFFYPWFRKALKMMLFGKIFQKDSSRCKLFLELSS

[6] = target: T3, Trace amine-associated receptor 1; test: Counterscreen for agonists of the human trace amine associated receptor 1 (hTAAR1): Fluorescence-based cell-based high throughput dose response assay to identify hTAAR1 agonist that also desensitize TAAR1 receptor response.; format: functional
cells [7] = format: functional, cell-based; remark: listed apart in the source
[8] = intracellular Trypanosoma cruzi inhibitors in host cells – cell-based, plate reader, cherry-pick samples, set 3, dose response (AID 651818); format: functional;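 also: compounds incubated with infected cells for about four days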
[9] = target: Induced myeloid leukemia cell differentiation protein Mcl-1 (Homo sapiens, UniProt Q07820); format: functional
Sequence of Induced myeloid leukemia cell differentiation protein Mcl-1 (Q07820 whole entry): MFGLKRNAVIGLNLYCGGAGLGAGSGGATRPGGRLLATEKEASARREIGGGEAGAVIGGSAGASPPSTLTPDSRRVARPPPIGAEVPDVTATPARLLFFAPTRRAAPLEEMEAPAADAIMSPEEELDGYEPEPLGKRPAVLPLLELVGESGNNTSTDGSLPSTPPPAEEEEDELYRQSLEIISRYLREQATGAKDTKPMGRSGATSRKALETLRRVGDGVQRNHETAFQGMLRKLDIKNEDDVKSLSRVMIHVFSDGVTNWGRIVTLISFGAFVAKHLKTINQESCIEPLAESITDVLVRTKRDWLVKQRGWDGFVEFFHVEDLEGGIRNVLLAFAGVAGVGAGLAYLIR

[10] = HeLa cell cytotoxicity, dose response, cytotoxicity control for MgcRacGAP inhibitor project (AID 624300); format: functional
[11] = target: T4, Rac GTPase-activating protein 1 (Homo sapiens, UniProt Q9H0H5); test: MgcRacGAP GTPase-activating activity inhibitors, confirmation, biochemical, ADP Hunter fluorescence, primary and confirmatory (AID 624330); format: functional
T4 sequence (Q9H0H5 whole entry): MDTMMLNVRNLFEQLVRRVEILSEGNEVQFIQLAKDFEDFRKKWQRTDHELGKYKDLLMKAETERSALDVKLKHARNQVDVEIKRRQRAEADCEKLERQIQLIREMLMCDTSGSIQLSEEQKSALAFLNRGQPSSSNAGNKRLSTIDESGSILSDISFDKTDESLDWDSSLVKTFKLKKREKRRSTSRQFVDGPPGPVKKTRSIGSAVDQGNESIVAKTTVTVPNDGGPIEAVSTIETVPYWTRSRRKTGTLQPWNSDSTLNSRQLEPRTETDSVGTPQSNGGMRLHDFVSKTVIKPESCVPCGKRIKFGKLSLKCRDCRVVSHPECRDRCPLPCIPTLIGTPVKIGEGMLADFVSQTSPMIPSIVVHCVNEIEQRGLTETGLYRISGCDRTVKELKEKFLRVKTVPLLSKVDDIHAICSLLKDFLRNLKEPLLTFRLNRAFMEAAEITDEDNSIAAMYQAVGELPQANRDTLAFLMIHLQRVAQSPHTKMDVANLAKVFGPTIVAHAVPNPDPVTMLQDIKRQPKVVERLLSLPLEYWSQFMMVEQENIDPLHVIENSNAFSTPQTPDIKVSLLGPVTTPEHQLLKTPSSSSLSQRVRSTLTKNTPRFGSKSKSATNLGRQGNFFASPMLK

[12] = microbe, parasite or virus in culture; format: functional; details: Mycobacterium tuberculosis
HEK293 [13] = test: NOD1 signaling inhibitors, primary screen, cell-based, luminescence, uHTS (AID 1578); format: functional; details: Homo sapiens
HEK293 [14] = test: cells; format: functional, cell-based; details: Homo sapiens
HEK293 [15] = test: cells; format: functional, cell-based; details: Homo sapiens; remark: listed apart in the source
[16] = target: Nucleotide-binding oligomerization domain-containing protein 2 (Homo sapiens, UniProt Q9HC29); test: NOD2 signaling inhibitors, cell-based, luminescence, uHTS, HEK293 (AID 1566); format: functional
Sequence of Nucleotide-binding oligomerization domain-containing protein 2 (Q9HC29 whole entry, the tested form may be a part): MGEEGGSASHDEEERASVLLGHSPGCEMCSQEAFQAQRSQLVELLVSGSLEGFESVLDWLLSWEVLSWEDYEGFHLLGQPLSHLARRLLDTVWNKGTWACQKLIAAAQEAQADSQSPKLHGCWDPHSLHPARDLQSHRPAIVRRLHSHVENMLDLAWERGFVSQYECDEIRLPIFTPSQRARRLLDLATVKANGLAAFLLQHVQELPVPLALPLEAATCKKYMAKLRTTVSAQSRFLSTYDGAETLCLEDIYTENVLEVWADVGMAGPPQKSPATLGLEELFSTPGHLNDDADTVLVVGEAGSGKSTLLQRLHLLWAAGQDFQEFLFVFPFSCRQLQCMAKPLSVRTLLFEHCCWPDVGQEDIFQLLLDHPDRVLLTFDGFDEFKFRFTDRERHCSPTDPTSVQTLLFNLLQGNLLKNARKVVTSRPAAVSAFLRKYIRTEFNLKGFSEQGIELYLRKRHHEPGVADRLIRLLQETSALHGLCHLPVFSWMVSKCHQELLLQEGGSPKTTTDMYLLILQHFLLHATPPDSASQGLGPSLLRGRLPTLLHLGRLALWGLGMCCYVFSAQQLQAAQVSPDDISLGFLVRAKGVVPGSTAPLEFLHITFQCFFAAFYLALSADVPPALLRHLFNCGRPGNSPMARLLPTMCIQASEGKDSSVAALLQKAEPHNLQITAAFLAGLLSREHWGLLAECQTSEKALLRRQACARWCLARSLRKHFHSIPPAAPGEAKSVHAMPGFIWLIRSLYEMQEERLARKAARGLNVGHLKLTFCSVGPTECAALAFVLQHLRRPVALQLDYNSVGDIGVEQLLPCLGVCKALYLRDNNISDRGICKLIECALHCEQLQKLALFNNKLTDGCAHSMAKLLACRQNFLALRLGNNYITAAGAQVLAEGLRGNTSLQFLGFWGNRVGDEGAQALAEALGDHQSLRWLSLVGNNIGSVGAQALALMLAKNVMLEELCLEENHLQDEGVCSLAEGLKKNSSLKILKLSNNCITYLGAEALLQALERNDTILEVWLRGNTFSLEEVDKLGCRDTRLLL

HEK293 [17] = test: NOD2 signaling inhibitors in MDP-stimulated cells, cell-based, uHTS, luminescence (AID 2001); format: functional; details: Homo sapiens
HEK293 [18] = test: cells; format: functional, cell-based; details: Homo sapiens; remark: listed apart in the source
Mu-type opioid receptor = Mu-type opioid receptor (Homo sapiens, UniProt P35372); format: functional, cell-based;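 also: U2OS cells with beta-arrestin recruitment to OPRM1 by beta-gal complementation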
Sequence of Mu-type opioid receptor (P35372 whole entry): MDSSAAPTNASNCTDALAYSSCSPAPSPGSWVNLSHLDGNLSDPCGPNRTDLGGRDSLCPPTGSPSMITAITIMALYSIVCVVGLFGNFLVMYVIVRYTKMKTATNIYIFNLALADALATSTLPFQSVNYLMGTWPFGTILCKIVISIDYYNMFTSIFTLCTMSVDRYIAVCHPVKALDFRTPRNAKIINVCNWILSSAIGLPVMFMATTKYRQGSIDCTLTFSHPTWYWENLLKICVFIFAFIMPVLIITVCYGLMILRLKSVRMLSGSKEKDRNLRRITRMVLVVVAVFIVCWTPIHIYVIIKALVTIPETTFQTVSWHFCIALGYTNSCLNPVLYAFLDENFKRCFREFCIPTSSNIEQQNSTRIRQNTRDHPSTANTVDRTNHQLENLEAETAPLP

[19] = target: 5-hydroxytryptamine receptor 2A (Mus musculus, UniProt P35363); format: functional, cell-based;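 also: CHO-K1 cells with tagged receptor and beta-arrestin; agonist potency measured as compound-induced activation of the receptor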
Sequence of 5-hydroxytryptamine receptor 2A (P35363 whole entry): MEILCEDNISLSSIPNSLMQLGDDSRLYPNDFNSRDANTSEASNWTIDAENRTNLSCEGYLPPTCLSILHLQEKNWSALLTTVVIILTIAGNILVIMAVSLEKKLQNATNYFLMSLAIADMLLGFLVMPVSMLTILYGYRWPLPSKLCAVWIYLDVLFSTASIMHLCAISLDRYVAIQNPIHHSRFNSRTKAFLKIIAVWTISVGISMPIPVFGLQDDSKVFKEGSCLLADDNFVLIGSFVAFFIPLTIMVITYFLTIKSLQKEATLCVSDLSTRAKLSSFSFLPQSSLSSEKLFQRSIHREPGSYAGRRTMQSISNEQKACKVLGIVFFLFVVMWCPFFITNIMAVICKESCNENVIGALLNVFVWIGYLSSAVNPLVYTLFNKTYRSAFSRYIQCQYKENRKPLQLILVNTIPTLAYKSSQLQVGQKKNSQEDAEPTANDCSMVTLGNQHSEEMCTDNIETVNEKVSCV

[20] = cytotoxicity in HPDE-C7 cells, cell-based, fluorescence, HTS (AID 430); format: functional; details: Homo sapiens
[21] = cytotoxicity in KRAS-transformed pancreatic duct cells, primary screen, cell-based, fluorescence, HTS (AID 431); format: functional; details: Homo sapiens;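 also: cell line used: HPDE-C7K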
[22] = test system: Streptococcus sp. 'group A'; test: growth inhibition of control SK(-) GAS strain, dose response, counter-screen for streptokinase expression inhibitor project, luminescence, kanamycin, BacTiterGlo, confirmation (AID 1900); format: functional, organism-based
Streptokinase A = target: T5, Streptokinase A (Streptococcus pyogenes serotype M1, UniProt P10520); test: S. pyogenes streptokinase expression inhibitors, potency, dose response, plasminogen activation absorbance, OD405 (AID 1914); format: functional, Streptococcus pyogenes M1 GAS;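 also: secreted streptokinase activity via plasminogen activation per viability signal from cell pellet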
T5 sequence (P10520 whole entry): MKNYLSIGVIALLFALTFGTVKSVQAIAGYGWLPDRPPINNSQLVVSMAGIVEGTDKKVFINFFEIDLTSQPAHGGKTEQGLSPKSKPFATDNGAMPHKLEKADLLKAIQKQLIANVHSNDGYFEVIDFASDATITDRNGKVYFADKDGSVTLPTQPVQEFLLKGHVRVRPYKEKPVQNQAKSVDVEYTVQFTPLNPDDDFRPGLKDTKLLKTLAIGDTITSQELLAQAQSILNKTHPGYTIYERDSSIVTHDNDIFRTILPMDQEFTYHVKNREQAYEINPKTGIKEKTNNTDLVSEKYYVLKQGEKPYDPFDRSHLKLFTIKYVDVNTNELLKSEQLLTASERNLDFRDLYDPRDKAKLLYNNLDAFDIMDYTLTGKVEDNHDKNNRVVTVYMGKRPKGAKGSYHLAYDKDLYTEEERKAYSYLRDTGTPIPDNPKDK

Streptococcus = test: Group A Streptococcus viability loss, dose response, counter-screen for streptokinase expression inhibitor project, luminescence, BacTiterGlo (AID 1915); format: functional, organism-based;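 also: potency for reduction of bacterial viability or growth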
[23] = target: Heat shock protein HSP 90-alpha (Homo sapiens, UniProt P07900); format: functional, organism-based
[24] = THP-1 cell cytotoxicity, dose response, cytotoxicity control for non-replicating M. tuberculosis project (AID 489025); format: functional
[25] = inhibitors of HIV Env-driven cell fusion, dose response, cherry-pick (AID 652057); format: functional, cell-based
[26] = CEM21 lymphoblast cell cytotoxicity, dose response, cytotoxicity control for viral fusion inhibitor project, CellTiter-Glo luminescence, cherry-picked (AID 652042); format: functional, cell-based;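 also: potency for signal decrease meaning cytotoxicity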
[27] = ZM109 Env clade C HIV-1 fusion inhibitors, dose response, HeLa effector, CEM target cells, luciferase, cherry-pick (AID 652058); format: functional, cell-based
[28] = off-target signal loss in HeLa-CEM21 co-culture – HeLa F-luc CTL cells, cherry-picked, counter-screen for HIV-1 Env fusion inhibitor project, dose response (AID 652040); format: functional, cell-based;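 also: potency for signal decrease marking cytotoxic or nonspecific inhibition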
[29] = inhibitors of clade B AD8 Env fusion, dose response, cell-based, cherry-pick (AID 652062); format: functional;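 also: luciferase signal from cell-cell fusion driven by HIV-1 clade B AD8 Env; potency is for inhibitors of fusion seen as a drop in luminescence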

## Cc1ccnc(NC(=O)CCNS(=O)(=O)c2ccc(C)c(C)c2)c1
[1]
  EC50: > 67.6 µM (inactive)

## O=C(C[C@H]1C[C@@H]2c3cc(NC(=O)c4ccc5c(c4)OCO5)ccc3O[C@@H]2[C@@H](CO)O1)NCc1ccc(Oc2ccccc2)cc1
[2]
  AC50: 28.6 µM (active)

## CCOC(=O)N1CCN(CC(O)COC2CC(C)CCC2C(C)C)CC1 (stereo not drawn)
[3]
  IC50: > 9.99 µM (inactive)

## CCOC(=O)C1(CCOc2ccccc2)CCN(C(=O)c2ccc(-n3cccn3)cc2)CC1
Beta-galactosidase
  IC50: > 80 µM (inactive)

## COc1cc2c(cc1NC(=S)NC(=O)/C=C/c1ccco1)oc1ccccc12
Beta-galactosidase
  IC50: > 80 µM (inactive)

## CN(C)C=O.O=C(/C=C/c1cccc(F)c1)Nc1ccc(S(=O)(=O)Nc2ncccn2)cc1
[3]
  IC50: > 9.99 µM (inactive)

## O=[N+]([O-])c1ccc2c(c1)Nc1nc3ccccc3nc1N2
[1]
  EC50: > 67.5 µM (inactive)

## CCCC[C@@H]1CNCCN1CCc1cccc2ccccc12
Cells [4]
  IC50: > 29.9 µM (inactive)
[5]
  EC50: 4.01 µM (active)
[6]
  IC50: 3.52 µM (active)
Cells [7]
  EC50: > 29.9 µM (inactive)

## O=C(COc1ccc(Br)cc1)N1CCN(Cc2ccc3c(c2)OCO3)CC1
Beta-galactosidase
  IC50: > 80 µM (inactive)

## C[C@@H]1CN([C@@H](C)CO)C(=O)c2cccc(NC(=O)c3ccc(-c4nccs4)cc3)c2O[C@H]1CN(C)C(=O)Nc1ccc(C(F)(F)F)cc1
[8]
  AC50: 3.55 µM (active)
[2]
  AC50: 6.3 µM (active)

## CN(C)c1ccc2c(c1)[C@@H]1C[C@@H](CC(=O)NC3CCCCC3)O[C@@H](CO)[C@@H]1O2
[2]
  AC50: 20.2 µM (active)

## Clc1cccc(N/N=C/c2ccc(N3CCOCC3)s2)c1
[9]
  IC50: 13.4 µM (active)
[10]
  CC50: 83.7 µM (active)
[11]
  IC50: 71.3 µM (active)

## Cc1ccc(C(=O)CC(SCC(=O)O)c2ccc([N+](=O)[O-])cc2)cc1 (stereo not drawn)
[12]
  CC50: 30.6 µM (active)

## Cc1ccc(-c2csc(N3CCN(CCCn4c(-c5ccncc5)nc5ccccc54)CC3)n2)cc1
HEK293 [13]
  EC50: 6.11 µM (active)
HEK293 [14]
  IC50: 4.3 µM (active)
HEK293 [15]
  IC50: 11.4 µM (active)
[16]
  EC50: 12.3 µM (active)
HEK293 [17]
  IC50: 4.62 µM (active)
HEK293 [18]
  IC50: > 20 µM (inactive)
[12]
  CC50: > 40 µM (active)

## O=C(c1cccc(C(=O)N(c2ccccn2)C2CCCCC2)c1)N(c1ccccn1)C1CCCCC1
Mu-type opioid receptor
  EC50: 92.5 µM (inactive)
[19]
  EC50: 76.1 µM (inactive)

## COc1ccc(C2Nc3ccccc3C(=O)N2NS(C)(=O)=O)c(OC)c1 (stereo not drawn)
[3]
  IC50: > 1.11 µM (active)

## COc1cccc(-n2cc(CNCc3cn(C)nc3-c3ccccc3F)cn2)c1
Mu-type opioid receptor
  EC50: 92.5 µM (inactive)
[19]
  EC50: 0.772 µM (active)

## O=C(Oc1cccc2cccnc12)c1cccs1
[20]
  EC50: 3.46 µM (active)
[21]
  EC50: 4.38 µM (active)

## Nc1sc2c(c1C(=O)NCCc1ccccc1)CCCC2
Cells [4]
  IC50: > 29.9 µM (inactive)
[5]
  EC50: 1.35 µM (active)
[6]
  IC50: 4.88 µM (active)
Cells [7]
  EC50: > 29.9 µM (inactive)

## C/C(=N/NC(=O)c1cc(C(C)C)n[nH]1)c1cccs1
[1]
  EC50: > 67.6 µM (inactive)

## Cc1cc2n(n1)C(c1c[nH]c3ccccc13)Nc1ccccc1-2 (stereo not drawn)
[22]
  EC50: 8.99 µM (active)
Streptokinase A
  EC50: 18.1 µM (active)
[20]
  EC50: 12 µM (active)
[21]
  EC50: 12.9 µM (active)
Streptococcus
  EC50: > 150 µM (not active)
[23]
  AC50: 6.08 µM (active)

## Oc1ccc(CN2CCN(c3ncccn3)CC2)cc1
Mu-type opioid receptor
  EC50: 92.4 µM (inactive)
[19]
  EC50: 0.496 µM (active)

## Cc1cc(OCCOCCNCc2ccccc2)ccc1C(C)C
[24]
  CC50: > 40 µM (active)
[25]
  AC50: 1.55 µM (active)
[26]
  AC50: 45.2 µM (active)
[27]
  AC50: 1.86 µM (active)
[28]
  AC50: 2.26 µM (active)
[29]
  AC50: 4.8 µM (active)

## COc1cc(/C=N/n2c(-c3ccc4c(c3)NC(=O)CO4)cs/c2=N\c2cccc(C)c2)ccc1O
[12]
  CC50: 25 µM (active)
